Source: DBAASP
In brackets after ≈: the same amount, converted by molar mass. Several values for one entry are separate records, joined by “and”; a condition that tells them apart may be missing. Equal entries are not always repeated. Blank lines part the entries; values can stand above or below the compound they belong to.

Key:
Experiment in all cases: ≥ marks a high value that may be exact or a test limit, other limits are often not marked, values filed in µg/mL are converted to µM
Escherichia coli SBS 363 = tested on: Escherichia coli SBS 363
[1] = tested on: Pseudomonas aeruginosa ATCC 27853
[2] = tested on: Salmonella enterica subsp. arizonae ATCC 13314
Candida albicans MDM8 = tested on: Candida albicans MDM8
Micrococcus luteus A270 = tested on: Micrococcus luteus A270
[3] = tested on: Staphylococcus aureus CCARM 3709
[4] = tested on: Pseudomonas aeruginosa 5018
[5] = tested on: Salmonella typhimurium KCTC 1926
[6] = tested on: Escherichia coli CCARM 1229
[7] = tested on: Staphylococcus aureus CCARM 3114
[8] = tested on: Listeria monocytogenes KCTC 3710
[9] = tested on: Salmonella typhimurium CCARM 8013
[10] = tested on: Salmonella typhimurium CCARM 8009
[11] = tested on: Pseudomonas aeruginosa 3592
[12] = tested on: Staphylococcus aureus ATCC 25923
[13] = tested on: Escherichia coli ATCC 25922
Klebsiella pneumoniae = tested on: Klebsiella pneumoniae
Streptococcus pneumoniae = tested on: Streptococcus pneumoniae
[14] = tested on: Acinetobacter baumannii ATCC 15308
Staphylococcus aureus = tested on: Staphylococcus aureus
Citrobacter sp. = tested on: Citrobacter sp.
[15] = tested on: Pseudomonas aeruginosa ATCC 15442
Enterobacter cloacae = tested on: Enterobacter cloacae
[16] = tested on: Staphylococcus aureus KCTC 1621
Enterococcus faecium VR = tested on: Enterococcus faecium VR
[17] = tested on: Staphylococcus epidermidis KCTC 1917
Enterococcus faecalis = tested on: Enterococcus faecalis
[18] = tested on: Pseudomonas aeruginosa KCTC 1637
Enterococcus faecium = tested on: Enterococcus faecium
Staphylococcus aureus MR = tested on: Staphylococcus aureus MR
[19] = tested on: Bacillus subtilis KCTC 3068
Enterococcus faecalis VR = tested on: Enterococcus faecalis VR
[20] = tested on: Escherichia coli KCTC 1682
Candida albicans = tested on: Candida albicans
[21] = tested on: Candida albicans ATCC 10231
[22] = tested on: Staphylococcus epidermidis
Escherichia coli = tested on: Escherichia coli
Pseudomonas aeruginosa = tested on: Pseudomonas aeruginosa
[23] = tested on: Escherichia coli BL21(DE3)
[24] = tested on: Escherichia coli BL21 (DE3)-NDM-1
[25] = tested on: Acinetobacter baumannii ATCC 19606
[26] = tested on: Pseudomonas aeruginosa 1125
[27] = tested on: Acinetobacter baumannii ATCC BAA-747
[28] = tested on: Pseudomonas aeruginosa 1109
[29] = tested on: Pseudomonas aeruginosa ATCC 25619
[30] = tested on: Acinetobacter baumannii ATCC BAA-1605
[31] = tested on: Pseudomonas aeruginosa ATCC 35032
[32] = tested on: Pseudomonas aeruginosa ATCC 9027
[33] = tested on: Acinetobacter baumannii NR-13375
[34] = tested on: Acinetobacter baumannii NR-9667
[35] = tested on: Pseudomonas aeruginosa ATCC 9721
[36] = tested on: Pseudomonas aeruginosa ATCC BAA-1744
[37] = tested on: Pseudomonas aeruginosa ATCC 10145

MIC (Escherichia coli SBS 363): 12.5 µM (≈ 15.5 µg/mL)
MIC [1]: 1.6 µM (≈ 1.98 µg/mL)
MIC [2]: ≥ 50 µM
MIC (Candida albicans MDM8): 12.5 µM (≈ 15.5 µg/mL)
MIC (Micrococcus luteus A270): 12.5 µM (≈ 15.5 µg/mL)
Compound: CC[C@H](C)[C@H](NC(=O)[C@H](CC(C)C)NC(=O)[C@H](CO)NC(=O)[C@H](CC(C)C)NC(=O)[C@H](CC(C)C)NC(=O)[C@@H](N)CO)C(=O)N[C@@H](CCCN=C(N)N)C(=O)N[C@@H](CC(C)C)C(=O)N[C@@H](CC(C)C)C(=O)N[C@H](C(=O)N[C@H](C(N)=O)[C@@H](C)O)[C@@H](C)CC [SLLSLIRLLIT]

MIC [3]: 2 µM and 4 µM
MIC [4]: 8 µM (≈ 14.3 µg/mL)
MIC [5]: 2 µM (≈ 3.58 µg/mL)
MIC [1]: 4 µM (≈ 7.16 µg/mL)
MIC [6]: 1 µM and 2 µM
MIC [7]: 8 µM and 16 µM
MIC [8]: 4 µM (≈ 7.16 µg/mL)
MIC [9]: 4 µM and 8 µM
MIC [10]: 4 µM (≈ 7.16 µg/mL)
MIC [11]: 8 µM (≈ 14.3 µg/mL)
MIC [12]: 1 µM (≈ 1.79 µg/mL)
MIC [13]: 2 µM (≈ 3.58 µg/mL)
Compound: CC[C@H](C)[C@H](NC(=O)[C@H](Cc1c[nH]c2ccccc12)NC(=O)[C@H](CCCN=C(N)N)NC(=O)[C@@H](NC(=O)[C@@H](N)CCCN=C(N)N)[C@@H](C)CC)C(=O)N[C@@H](CC(C)C)C(=O)N[C@@H](CCCN=C(N)N)C(=O)N[C@@H](Cc1ccc(O)cc1)C(=O)N[C@@H](Cc1c[nH]c2ccccc12)C(=O)N[C@@H](CCCN=C(N)N)C(=O)N[C@@H](Cc1c[nH]c2ccccc12)C(=O)N[C@@H](CO)C(=O)O [RIRWILRYWRWS]

MIC (Klebsiella pneumoniae): > 116 µM
MIC (Streptococcus pneumoniae): ≥ 116 µM
MIC [14]: ≥ 116 µM
MIC (Staphylococcus aureus): 116 µM (≈ 250 µg/mL)
MIC (Citrobacter sp.): ≥ 116 µM
MIC [15]: ≥ 116 µM
MIC [12]: 57.8 µM (≈ 125 µg/mL)
MIC [13]: 116 µM (≈ 250 µg/mL)
MIC (Enterobacter cloacae): ≥ 116 µM
Compound: CC[C@H](C)[C@H](NC(=O)[C@H](CCSC)NC(=O)[C@H](C)NC(=O)[C@@H]1CCCN1C(=O)[C@@H](NC(=O)[C@@H](NC(=O)[C@H](CCCCN)NC(=O)[C@@H](NC(=O)[C@H](CC(C)C)NC(=O)CNC(=O)CNC(=O)[C@H](CC(C)C)NC(=O)[C@@H](N)Cc1ccccc1)[C@@H](C)CC)[C@@H](C)CC)C(C)C)C(=O)N[C@H]1CSSC[C@@H](C(=O)O)NC(=O)[C@H](CCCCN)NC(=O)[C@H](CCCCN)NC(=O)[C@H](CCCN=C(N)N)NC(=O)[C@H](C(C)C)NC(=O)[C@H](C)NC1=O [FLGGLIKIVPAMICAVRKKC]

MIC [5]: 30 µM (≈ 33.4 µg/mL)
MIC [16]: 30 µM (≈ 33.4 µg/mL)
MIC (Enterococcus faecium VR): 30 µM (≈ 33.4 µg/mL)
MIC [17]: 15 µM (≈ 16.7 µg/mL)
MIC (Enterococcus faecalis): 30 µM (≈ 33.4 µg/mL)
MIC [18]: 15 µM (≈ 16.7 µg/mL)
MIC (Enterococcus faecium): 30 µM (≈ 33.4 µg/mL)
MIC (Staphylococcus aureus MR): 30 µM (≈ 33.4 µg/mL)
MIC [19]: 15 µM (≈ 16.7 µg/mL)
MIC (Enterococcus faecalis VR): 30 µM (≈ 33.4 µg/mL)
MIC [20]: 30 µM (≈ 33.4 µg/mL)
Compound: CC[C@H](C)[C@H](NC(=O)[C@H](CS)NC(=O)[C@H](Cc1cnc[nH]1)NC(=O)[C@H](C)NC(=O)[C@H](C)N)C(=O)N[C@H](C(=O)N[C@@H](CC(C)C)C(=O)N[C@@H](Cc1cnc[nH]1)C(=O)N[C@@H](Cc1cnc[nH]1)C(=O)N[C@@H](CC(N)=O)C(N)=O)C(C)C [AAHCIVLHHN]

MIC (Klebsiella pneumoniae): 17.6 µM (≈ 32 µg/mL)
MIC (Candida albicans): 35.2 µM (≈ 64 µg/mL)
MIC [1]: 8.79 µM (≈ 16 µg/mL)
MIC [21]: 35.2 µM (≈ 64 µg/mL)
MIC (Staphylococcus aureus): 17.6 µM (≈ 32 µg/mL)
MIC [22]: 17.6 µM (≈ 32 µg/mL)
MIC (Escherichia coli): 17.6 µM (≈ 32 µg/mL)
MIC (Pseudomonas aeruginosa): 17.6 µM (≈ 32 µg/mL)
MIC [23]: 8.79 µM (≈ 16 µg/mL)
MIC [12]: 35.2 µM (≈ 64 µg/mL)
MIC [24]: 4.4 µM (≈ 8 µg/mL)
MIC [13]: 17.6 µM (≈ 32 µg/mL)
Compound: CC(C)C[C@H](NC(=O)[C@H](CCCCN)NC(=O)[C@H](CCCN=C(N)N)NC(=O)[C@H](Cc1ccccc1)NC(=O)[C@H](Cc1ccccc1)NC(=O)[C@H](CCCCN)NC(=O)[C@H](CCCN=C(N)N)NC(=O)[C@H](CC(C)C)NC(=O)[C@H](CC(C)C)NC(=O)[C@@H](N)CCCN=C(N)N)C(=O)N[C@@H](CCCCN)C(=O)N[C@@H](CCCCN)C(=O)N[C@@H](CO)C(=O)N[C@H](C(=O)O)C(C)C [RLLRKFFRKLKKSV]

MIC [25]: 2 µM (≈ 3.95 µg/mL)
MIC [26]: ≥ 32 µM
MIC [27]: 4 µM (≈ 7.9 µg/mL)
MIC [28]: 16 µM (≈ 31.6 µg/mL)
MIC [1]: 8 µM (≈ 15.8 µg/mL)
MIC [29]: 8 µM (≈ 15.8 µg/mL)
MIC [30]: 4 µM (≈ 7.9 µg/mL)
MIC [31]: 16 µM (≈ 31.6 µg/mL)
MIC [32]: 4 µM (≈ 7.9 µg/mL)
MIC [33]: 2 µM (≈ 3.95 µg/mL)
MIC [34]: 4 µM (≈ 7.9 µg/mL)
MIC [15]: 16 µM (≈ 31.6 µg/mL)
MIC [35]: 8 µM (≈ 15.8 µg/mL)
MIC [36]: 16 µM (≈ 31.6 µg/mL)
MIC [37]: 8 µM (≈ 15.8 µg/mL)
Compound: CC[C@H](C)[C@H](NC(=O)[C@H](Cc1c[nH]c2ccccc12)NC(=O)[C@H](CCCCN)NC(=O)[C@H](CCCCN)NC(=O)[C@@H](NC(=O)[C@H](CCCN=C(N)N)NC(=O)[C@H](CCCN=C(N)N)NC(=O)[C@@H](NC(=O)[C@@H](N)Cc1c[nH]c2ccccc12)[C@@H](C)CC)[C@@H](C)CC)C(=O)N[C@@H](CCCN=C(N)N)C(=O)N[C@@H](CCCN=C(N)N)C(=O)N[C@H](C(=O)N[C@@H](Cc1cnc[nH]1)C(=O)N[C@@H](CCCCN)C(=O)O)C(C)C [WIRRIKKWIRRVHK]
